From patent US20250197387A1, “BCL-XL DEGRADERS AND USES THEREOF” (Kymera Therapeutics, Inc., priority 2021, published 2025)

How the values were obtained:
Format in all cases: cell-based
BCL-XL = molecular target: T1, BCL-XL (Homo sapiens, UniProt Q07817); assay: Bcl-xL ELISA degradation in MOLT-4 cells, 6 h; settings: for DC50: read-out: Bcl-xL ELISA in MOLT-4 degradation 6 h: Mean external-Abs DC50
T1 construct: endogenous in cells; host or cells: MOLT-4
Method: The letter codes for BCL-XL DC50 include: A (<0.01 μM); B (0.01-0.1 μM); C (>[…]); D (>0.5-1.0 μM); and E (>1.0 μM). The letter codes for Dmax % include A (>75%); B (50 to 75%); C (<50%).

MOLT-4 cells = assay: CTG (CellTiter-Glo) cell viability assay, MOLT-4; settings: Homo sapiens, MOLT-4, 72 h, 3 day incubation, read-out: CTG Cell Viability Assay - MOLT-4 3 day: Average external-IC50
How it was run: (§1)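 10,000 cells/well; 9 doses, 1:3 from 10 μM top; 0.2% DMSO; 3 d, 37 °C, 5% CO2; CTG luminescence; IC50 via 3-parameter logistic fit. Letter bins differ: Caki-2 C/D cut at 10.0 μM, MOLT-4 at 3.0 μM.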

Caki-2 cells = assay: CTG (CellTiter-Glo) cell viability assay, Caki-2; settings: Homo sapiens, 72 h, 3 day incubation, read-out: CTG Chempartner - Caki-2 3 day: Average external-IC50
How it was run: as §1

T1 sequence (Q07817 whole entry): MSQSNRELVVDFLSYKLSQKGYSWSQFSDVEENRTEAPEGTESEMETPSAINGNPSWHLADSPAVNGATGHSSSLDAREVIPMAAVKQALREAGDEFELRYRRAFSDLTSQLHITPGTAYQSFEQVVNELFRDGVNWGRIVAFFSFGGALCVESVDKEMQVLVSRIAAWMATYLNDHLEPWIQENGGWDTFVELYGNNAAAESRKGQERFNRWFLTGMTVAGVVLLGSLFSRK

| SMILES | Dmax (BCL-XL) [%] | DC50 (BCL-XL) [µM] | IC50 (MOLT-4 cells) [µM] | IC50 (Caki-2 cells) [µM] |
| --- | --- | --- | --- | --- |
| Cc1ncsc1-c1ccc([C@H](C)NC(=O)[C@@H]2C[C@@H](O)CN2C(=O)[C@@H](NC(=O)CCCS(=O)(=O)NC(=O)c2nc(N3CCc4cccc(C(=O)Nc5nc6ccccc6s5)c4C3)ccc2-c2cnn(CC3CCCCC3)c2C)C(C)(C)C)cc1 [I-304] | > 75 | < 0.01 | 0.1 to 1 | 1 to 10 |
| Cc1cc(N(C)c2ccc(-c3cnn(CC45CC6CC(CC(C6)C4)C5)c3C)c(C(=O)NS(=O)(=O)CCCCCC(=O)N[C@H](C(=O)N3C[C@H](O)C[C@H]3C(=O)N[C@@H](C)c3ccc(-c4scnc4C)cc3)C(C)(C)C)n2)nnc1Nc1nc2ccccc2s1 [I-356] | > 75 | < 0.01 | < 0.1 | > 10 |
| C#Cc1ccc([C@H](C)NC(=O)[C@@H]2C[C@@H](O)CN2C(=O)[C@@H](NC(=O)CCCCCS(=O)(=O)NC(=O)c2nc(N(C)c3cc(C)c(Nc4nc5ccccc5s4)nn3)ccc2-c2cnn(CC34CC5CC(CC(C5)C3)C4)c2C)C(C)(C)C)c(O)c1 [I-475] | > 75 | < 0.01 | < 0.1 | > 10 |
| Cc1ncsc1-c1ccc(CNC(=O)[C@@H]2C[C@@H](O)CN2C(=O)[C@@H](NC(=O)C2CCN(c3ccc(S(=O)(=O)NC(=O)c4nc(N5CCc6cccc(C(=O)Nc7nc8ccccc8s7)c6C5)ccc4-c4cnn(CC5CCCCC5)c4C)cc3C#N)CC2)C(C)(C)C)cc1 [I-360] | > 75 | < 0.01 | 0.1 to 1 | > 10 |
| Cc1ncsc1-c1ccc(CNC(=O)[C@@H]2C[C@@H](O)CN2C(=O)[C@@H](NC(=O)[C@@H]2CCN(c3ccc(S(=O)(=O)NC(=O)c4nc(N5CCc6cccc(C(=O)Nc7nc8ccccc8s7)c6C5)ccc4-c4cnn(CC5CCCCC5)c4C)cc3)C2)C(C)(C)C)cc1 [I-410] | > 75 | 0.01 to 0.1 | < 0.1 | > 10 |
| Cc1ncsc1-c1ccc([C@H](C)NC(=O)[C@@H]2C[C@@H](O)CN2C(=O)[C@@H](c2cc(OC3CCN(CCNC(=O)c4nc(N5CCc6cccc(C(=O)Nc7nc8ccccc8s7)c6C5)ccc4-c4cnn(CC5CCCCC5)c4C)CC3)no2)C(C)C)cc1 [I-291] | < 50 | 0.5 to 1 | 1 to 3 | 1 to 10 |
| Cc1ncsc1-c1ccc([C@H](C)NC(=O)[C@@H]2C[C@@H](O)CN2C(=O)[C@@H](NC(=O)C2CCN(c3ccc(S(=O)(=O)NC(=O)c4nc(N5CCc6cccc(C(=O)Nc7nc8ccccc8s7)c6C5)ccc4-c4cnn(CC5CCCCC5)c4C)cc3COP(=O)(O)O)CC2)C(C)(C)C)cc1 [I-334] | > 75 | 0.1 to 0.5 | 1 to 3 | 1 to 10 |
| Cc1ncsc1-c1ccc([C@H](C)NC(=O)[C@@H]2C[C@@H](O)CN2C(=O)[C@@H](NC(=O)CCCCCS(=O)(=O)NC(=O)c2nc(N3CCc4cccc(C(=O)Nc5nc6cccnc6s5)c4C3)ccc2-c2cnn(CC(C)(C)C)c2C)C(C)(C)C)cc1 [I-466] | > 75 | 0.1 to 0.5 | 1 to 3 | > 10 |
| Cc1ncsc1-c1ccc(CNC(=O)[C@@H]2C[C@@H](O)CN2C(=O)[C@@H](NC(=O)CCc2cc(F)c(S(=O)(=O)NC(=O)c3nc(N4CCc5cccc(C(=O)Nc6nc7ccccc7s6)c5C4)ccc3-c3cnn(CC4CCCCC4)c3C)c(F)c2)C(C)(C)C)cc1 [I-347] | > 75 | 0.01 to 0.1 | 0.1 to 1 | > 10 |
| Cc1cc(N(C)c2ccc(-c3cnn(CC45CC6CC(CC(C6)C4)C5)c3C)c(C(=O)NS(=O)(=O)CCCCCc3ccc4c(c3)n(C)c(=O)n4C3CCC(=O)NC3=O)n2)nnc1Nc1nc2ccccc2s1 (centres unmarked) [I-424] | > 75 | < 0.01 | < 0.1 | 1 to 10 |
| Cc1cc(C(C(=O)N2C[C@H](O)C[C@H]2C(=O)NCc2ccc(-c3scnc3C)cc2OCCN(C)C2CCN(C(=O)c3nc(N4CCc5cccc(C(=O)Nc6nc7ccccc7s6)c5C4)ccc3-c3cnn(CC4CCCCC4)c3C)CC2)C(C)C)on1 (some centres unmarked) [I-322] | 50 to 75 | 0.1 to 0.5 | 0.1 to 1 | 0.1 to 1 |
